Measurements as given in ChEMBL document CHEMBL5537177, “Discovery of Potent Antimalarial Type II Kinase Inhibitors with Selectivity over Human Kinases” (J Med Chem, 2024).
Calls of active or inactive are those of the source. No cut-off for these calls is given here.

Assays:
[1] = tested on: Plasmodium falciparum; experiment: Antimalarial activity against Plasmodium falciparum harboring AcAS A597V mutation assessed as reduction in parasitemia incubated for 72 hrs by SYBR green I dye based analysis; type: functional, organism-based
[2] = tested on: Plasmodium falciparum; experiment: Antimalarial activity against Plasmodium falciparum harboring CARL I1139K mutation assessed as reduction in parasitemia incubated for 72 hrs by SYBR green I dye based analysis; type: functional, organism-based
[3] = tested on: Plasmodium falciparum; experiment: Antimalarial activity against Plasmodium falciparum harboring PI4K S1320L mutation assessed as reduction in parasitemia incubated for 72 hrs by SYBR green I dye based analysis; type: functional, organism-based
[4] = tested on: Plasmodium falciparum; experiment: microbe, parasite or virus in culture; details: Dd2, 72 h
Description: Antimalarial activity against wild-type Plasmodium falciparum Dd2 assessed as reduction in parasitemia incubated for 72 hrs by SYBR green I dye based analysis

[5] = target: Ephrin type-A receptor 2 (Homo sapiens, UniProt P29317); experiment: Inhibition of human EphA2 by FRET assay
Chain of Ephrin type-A receptor 2 (P29317 whole entry): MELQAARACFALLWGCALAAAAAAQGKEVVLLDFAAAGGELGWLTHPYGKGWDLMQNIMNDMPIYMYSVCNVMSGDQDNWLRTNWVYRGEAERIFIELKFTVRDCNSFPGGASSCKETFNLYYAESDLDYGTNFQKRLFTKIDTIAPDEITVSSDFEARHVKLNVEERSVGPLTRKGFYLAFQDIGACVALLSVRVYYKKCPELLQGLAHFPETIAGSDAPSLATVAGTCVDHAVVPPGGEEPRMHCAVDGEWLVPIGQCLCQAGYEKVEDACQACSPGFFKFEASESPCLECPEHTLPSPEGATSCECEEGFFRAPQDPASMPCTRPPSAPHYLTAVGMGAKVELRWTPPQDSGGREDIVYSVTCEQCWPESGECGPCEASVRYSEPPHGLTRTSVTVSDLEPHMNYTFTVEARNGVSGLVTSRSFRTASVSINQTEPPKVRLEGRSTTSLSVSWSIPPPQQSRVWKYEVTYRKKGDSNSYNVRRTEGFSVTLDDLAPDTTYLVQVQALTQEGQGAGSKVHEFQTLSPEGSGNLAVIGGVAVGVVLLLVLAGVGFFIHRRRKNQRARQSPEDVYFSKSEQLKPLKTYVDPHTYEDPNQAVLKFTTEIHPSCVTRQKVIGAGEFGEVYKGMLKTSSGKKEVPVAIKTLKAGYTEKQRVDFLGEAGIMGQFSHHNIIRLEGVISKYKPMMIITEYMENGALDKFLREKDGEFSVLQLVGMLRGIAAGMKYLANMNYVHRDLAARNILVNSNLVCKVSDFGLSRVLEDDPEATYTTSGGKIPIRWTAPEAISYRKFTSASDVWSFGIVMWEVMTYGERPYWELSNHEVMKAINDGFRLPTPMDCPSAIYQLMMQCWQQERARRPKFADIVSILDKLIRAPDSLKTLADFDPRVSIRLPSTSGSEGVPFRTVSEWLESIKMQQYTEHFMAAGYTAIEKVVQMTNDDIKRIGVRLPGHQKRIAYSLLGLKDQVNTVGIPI

[6] = tested on: Plasmodium falciparum; experiment: microbe, parasite or virus in culture; details: Dd2, 72 h; remark: listed apart in the source
Description: Antiplasmodial activity against asynchronous Plasmodium falciparum Dd2 assessed as parasite growth reduction incubated for 72 hrs by SYBR Green I dye based analysis

[7] = tested on: MCF7; experiment: (§1) Cytotoxicity against human MCF7 cells assessed as reduction in cell viability incubated for 48 hrs by MTS assay; type: toxicity, cell-based; details: mcf7
[8] = tested on: Plasmodium falciparum; experiment: Antimalarial activity against artemisinin/piperaquine-sensitive synchronized early ring stage Plasmodium falciparum IPC 5188 (MRA-1239) clinical isolate assessed as decrease in parasite survival at ring stage at 10 times EC50 treated for 6 to 48 hrs followed by compound removal measured after 72 hrs by geimsa staining based microscopy; type: functional, organism-based
[9] = tested on: HepG2; experiment: (§2) Cytotoxicity against human HepG2 cells assessed as reduction in cell viability incubated for 48 hrs by MTS assay; type: toxicity, cell-based; details: hepg2
[10] = tested on: Plasmodium falciparum; experiment: Antimalarial activity against artemisinin-sensitive synchronized early ring stage Plasmodium falciparum IPC 5188 (MRA-1239) clinical isolate assessed as decrease in parasite survival at ring stage at 10 times EC50 treated for 48 hrs followed by compound removal measured after 72 hrs by geimsa staining based microscopy; type: functional, organism-based
[11] = tested on: Plasmodium falciparum; experiment: Antiplasmodial activity against drug-sensitive Plasmodium falciparum 3D7 at ring stage infected in A+ erythrocytes assessed as parasite growth reduction incubated for 72 hrs by SYBR Green I dye based analysis; type: functional, organism-based; details: 3D7, Erythrocyte
[12] = tested on: Plasmodium falciparum; experiment: Antimalarial activity against synchronized early ring stage Plasmodium falciparum 3D7 (MRA-152) clinical isolate assessed as decrease in parasite survival at ring stage at 10 times EC50 treated for 6 to 48 hrs followed by compound removal measured after 72 hrs by geimsa staining based microscopy; type: functional, organism-based
[13] = tested on: Plasmodium falciparum; experiment: Antimalarial activity against synchronous blood-stage Plasmodium falciparum 3D7 assessed as log of parasite reduction ratio at 10 times EC50 treated every 24 hrs for 120 hrs followed by compound washout and subsequent addition of RBCs measured after 21 days; type: functional
[14] = tested on: Plasmodium falciparum; experiment: Antiplasmodial activity against multidrug-resistant Plasmodium falciparum Dd2 at ring stage infected in A+ erythrocytes assessed as parasite growth reduction incubated for 72 hrs by SYBR Green I dye based analysis; type: functional, organism-based; details: Dd2, Erythrocyte
[15] = tested on: Plasmodium falciparum; experiment: Antimalarial activity against artemisinin-resistant synchronized early ring stage Plasmodium falciparum IPC 5202 (MRA-1240) clinical isolate assessed as decrease in parasite survival at ring stage at 10 times EC50 treated for 6 hrs followed by compound removal measured after 72 hrs by geimsa staining based microscopy; type: functional, organism-based
[16] = tested on: Plasmodium falciparum; experiment: Resistance index, ratio of EC50 for multidrug-resistant Plasmodium falciparum Dd2 at ring stage infected in A+ erythrocytes to EC50 for drug-sensitive Plasmodium falciparum 3D7 at ring stage infected in A+ erythrocytes; type: organism-based; details: human
[17] = tested on: Plasmodium falciparum; experiment: Antimalarial activity against synchronized early ring stage Plasmodium falciparum 3D7 (MRA-152) clinical isolate assessed as decrease in parasite survival at ring stage at 10 times EC50 treated for 48 hrs followed by compound removal measured after 72 hrs by geimsa staining based microscopy; type: functional, organism-based
[18] = Selectivity index, ratio of EC50 for human MCF7 cells to EC50 for multidrug-resistant Plasmodium falciparum Dd2 at ring stage infected in A+ erythrocytes; type: toxicity, cell-based; details: read-out: Ratio EC50
[19] = tested on: Plasmodium falciparum; experiment: Antimalarial activity against synchronized early ring stage Plasmodium falciparum 3D7 (MRA-152) clinical isolate assessed as decrease in parasite survival at ring stage at 10 times EC50 treated for 6 hrs followed by compound removal measured after 72 hrs by geimsa staining based microscopy; type: functional, organism-based
[20] = tested on: Plasmodium falciparum; experiment: Antimalarial activity against synchronous blood-stage Plasmodium falciparum 3D7 assessed as duration of lag phase at 10 times EC50 treated every 24 hrs for 120 hrs followed by compound washout and subsequent addition of RBCs measured after 21 days by parasite reduction ratio assay; type: functional
[21] = tested on: Plasmodium falciparum; experiment: Antimalarial activity against artemisinin-resistant synchronized early ring stage Plasmodium falciparum IPC 5202 (MRA-1240) clinical isolate assessed as decrease in parasite survival at ring stage at 10 times EC50 treated for 48 hrs followed by compound removal measured after 72 hrs by geimsa staining based microscopy; type: functional, organism-based
[22] = tested on: Plasmodium falciparum; experiment: Antimalarial activity against artemisinin-resistant/piperaquine-sensitive synchronized early ring stage Plasmodium falciparum IPC 5202 (MRA-1240) clinical isolate assessed as decrease in parasite survival at ring stage at 10 times EC50 treated for 6 to 48 hrs followed by compound removal measured after 72 hrs by geimsa staining based microscopy; type: functional, organism-based
[23] = tested on: Plasmodium falciparum; experiment: Antimalarial activity against artemisinin/piperaquine-resistant synchronized early ring stage Plasmodium falciparum IPC 6261 (MRA-1284) clinical isolate assessed as decrease in parasite survival at ring stage at 10 times EC50 treated for 6 hrs followed by compound removal measured after 72 hrs by geimsa staining based microscopy; type: functional, organism-based
[24] = tested on: Plasmodium falciparum; experiment: Antimalarial activity against artemisinin-sensitive synchronized early ring stage Plasmodium falciparum IPC 5188 (MRA-1239) clinical isolate assessed as decrease in parasite survival at ring stage at 10 times EC50 treated for 6 hrs followed by compound removal measured after 72 hrs by geimsa staining based microscopy; type: functional, organism-based
[25] = Selectivity index, ratio of EC50 for human HepG2 cells to EC50 for multidrug-resistant Plasmodium falciparum Dd2 at ring stage infected in A+ erythrocytes; type: toxicity, cell-based; details: read-out: Ratio EC50
[26] = Metabolic stability in mouse liver microsomes assessed as half life; type: ADME, Liver cells
[27] = tested on: Plasmodium falciparum; experiment: Antimalarial activity against synchronous blood-stage Plasmodium falciparum 3D7 assessed as parasite clearance time at 10 times EC50 treated every 24 hrs for 120 hrs followed by compound washout and subsequent addition of RBCs measured after 21 days by parasite reduction ratio assay; type: functional
[28] = tested on: Plasmodium falciparum; experiment: Antimalarial activity against artemisinin/piperaquine-resistant synchronized early ring stage Plasmodium falciparum IPC 6261 (MRA-1284) clinical isolate assessed as decrease in parasite survival at ring stage at 10 times EC50 treated for 48 hrs followed by compound removal measured after 72 hrs by geimsa staining based microscopy; type: functional, organism-based
[29] = tested on: Plasmodium falciparum; experiment: Antimalarial activity against artemisinin/piperaquine-resistant synchronized early ring stage Plasmodium falciparum IPC 6261 (MRA-1284) clinical isolate assessed as decrease in parasite survival at ring stage at 10 times EC50 treated for 6 to 48 hrs followed by compound removal measured after 72 hrs by geimsa staining based microscopy; type: functional, organism-based
[30] = Metabolic stability in mouse liver microsomes assessed as intrinsic clearance; type: ADME, Liver cells
[31] = tested on: Plasmodium falciparum; experiment: Antimalarial activity against Plasmodium falciparum at ring stage infected erythrocytes assessed as reduction in parasitemia measured after 60 hrs by flow cytometry; type: functional, organism-based; details: Erythrocyte
[32] = Volume of distribution at steady state in Balb/C mouse at 3 mg/kg, iv; type: ADME, organism-based; details: in vivo, read-out: Vdss
[33] = Half life in Balb/C mouse at 3 mg/kg, iv; type: ADME, organism-based; details: in vivo
[34] = as §1; type: toxicity, cell-based; details: human, MCF7 cells
[35] = as §2; type: toxicity, cell-based; details: human, HepG2 cells

C[C@@H]1CC[C@H]2[C@@H](C)C(=O)O[C@@H]3O[C@@]4(C)CC[C@@H]1[C@]32OO4 [ARTEMISININ]
EC50 [1]: 5.1 nM | EC50 [2]: 4 nM | EC50 [3]: 5.2 nM | EC50 [4]: 2.9 nM

CCN1CCN(Cc2ccc(NC(=O)c3cc(NC(=O)c4cncc(-c5cccs5)c4)cc(OC)c3)cc2C(F)(F)F)CC1
IC50 [5]: > 10000 nM | EC50 [6]: 341 nM

CCN1CCN(Cc2ccc(NC(=O)c3cc(Cl)cc(NC(=O)c4cncc(-c5ccc(C#N)cc5)c4)c3)cc2C(F)(F)F)CC1
EC50 [7]: 2190 nM | EC50 [8]: 43.9 nM | EC50 [9]: 1460 nM | Activity [10]: Active | EC50 [11]: 36 nM | EC50 [12]: 53.5 nM | log(activity) [13]: 5.12 | EC50 [14]: 36 nM | Activity [15]: inactive | Ratio EC50 [16]: 1 | Activity [17]: Active | selectivity ratio [18]: 61 | Activity [19]: inactive | Time [20]: 0 h | Activity [21]: Active | EC50 [22]: 41.5 nM | Activity [23]: inactive | Activity [24]: inactive | selectivity ratio [25]: 41 | t1/2 [26]: 42.5 min | T99.9% [27]: < 32 h | Activity [28]: Active | EC50 [29]: 64.9 nM | intrinsic clearance [30]: 16 µL/min/mg

O=C(NNC(=O)c1csnn1)c1ccc(Cl)cc1
EC50 [1]: > 50000 nM | EC50 [2]: 174 nM | EC50 [3]: 106 nM | EC50 [4]: 182 nM

Cc1ccc(NC(=O)c2ccc(CN3CC[C@H](N(C)C)C3)c(C(F)(F)F)c2)cc1Nc1nccc(-c2cncnc2)n1 [BAFETINIB]
EC50 [31]: 1300 nM

C[C@H]1[C@@H](O)O[C@@H]2O[C@@]3(C)CC[C@H]4[C@H](C)CC[C@@H]1[C@@]24OO3 [ARTENIMOL]
log(activity) [13]: 3.93 | Time [20]: 0 h | T99.9% [27]: 31 h

CNC(=O)c1ccc(-c2cnc3cnc(C(=O)N(C)c4ccc(Cl)cc4)cn23)cc1
EC50 [1]: 4.2 nM | EC50 [2]: 9.8 nM | EC50 [3]: 67.6 nM | EC50 [4]: 6 nM

Cc1cn(-c2cc(NC(=O)c3ccc(C)c(Nc4nccc(-c5cccnc5)n4)c3)cc(C(F)(F)F)c2)cn1 [NILOTINIB]
EC50 [31]: < 1000 nM

O=C1C(O)=C([C@H]2CC[C@H](c3ccc(Cl)cc3)CC2)C(=O)c2ccccc21 [ATOVAQUONE]
log(activity) [13]: 2.95 | Time [20]: 72 h | T99.9% [27]: 101 h

CCN1CCN(Cc2ccc(NC(=O)c3ccc(C)c(NC(=O)c4cncc(-c5cccs5)c4)c3)cc2C(F)(F)F)CC1
IC50 [5]: 11 nM | EC50 [6]: 3910 nM

CC1(C)c2nc(-c3ccc(F)cc3)c(Nc3ccc(Cl)cc3)n2CCN1C(=O)CN
Vd [32]: 11.8 L/kg | EC50 [1]: 1.1 nM | half-life [33]: 534 min | EC50 [2]: 1380 nM | EC50 [3]: 1.9 nM | EC50 [4]: 1.8 nM

CCN1CCN(Cc2ccc(NC(=O)c3cc(Cl)cc(NC(=O)c4cncc(-c5ccccc5)c4)c3)cc2C(F)(F)F)CC1
EC50 [7]: 4350 nM | EC50 [9]: 3290 nM | EC50 [11]: 41 nM | EC50 [14]: 50 nM | Ratio EC50 [16]: 1.2 | selectivity ratio [18]: 87 | selectivity ratio [25]: 66 | t1/2 [26]: 50.2 min | intrinsic clearance [30]: 14 µL/min/mg

CCN1CCN(Cc2ccc(NC(=O)c3cncc(NC(=O)c4cncc(-c5cccs5)c4)c3)cc2C(F)(F)F)CC1
EC50 [7]: 4710 nM | EC50 [9]: 2550 nM | EC50 [11]: 70 nM | EC50 [14]: 76 nM | Ratio EC50 [16]: 1.1 | selectivity ratio [18]: 62 | selectivity ratio [25]: 34 | t1/2 [26]: 19.1 min | intrinsic clearance [30]: 36 µL/min/mg

CCN1CCN(Cc2ccc(NC(=O)c3cc(C)cc(NC(=O)c4cncc(-c5cccs5)c4)c3)cc2C(F)(F)F)CC1
EC50 at 48 h [34]: 5220 nM | EC50 at 48 h [35]: 3200 nM | EC50 [11]: 235 nM | EC50 [14]: 372 nM | Ratio EC50 [16]: 1.6 | selectivity ratio [18]: 14 | selectivity ratio [25]: 8.6

CCN1CCN(Cc2ccc(NC(=O)c3cc(NC(=O)c4cncc(-c5cccs5)c4)cc(C(F)(F)F)c3)cc2C(F)(F)F)CC1
EC50 [7]: 3540 nM | EC50 [9]: 2850 nM | EC50 [11]: 35 nM | EC50 [14]: 31 nM | Ratio EC50 [16]: 0.9 | selectivity ratio [18]: 114 | selectivity ratio [25]: 92 | t1/2 [26]: 41.4 min | intrinsic clearance [30]: 17 µL/min/mg
